Data taken from patent publication US8877744B2, “1,4-Oxazepines as BACE1 and/or BACE2 inhibitors” (Hoffmann-La Roche Inc., priority 2011, dated 2014).
Where a name gives a salt, the structure may show the parent alone.

Experiments:
BACE1 = target: T1, BACE1 (Homo sapiens, UniProt P56817); experiment: Cellular Aβ-lowering assay a): HEK293 cells expressing human APP695, Aβ40 ELISA; assay type: cell-based; settings: Aβ40 in supernatant by ELISA, 18-20 hrs incubation
T1 construct: endogenous in cells; host or cells: HEK293 stably transfected with human APP695 wt
Description: Cellular Aβ-Lowering Assay:
a) Human HEK293 cells which are stably transfected with a vector expressing a cDNA of the human APP wt gene (APP695) were used to assess the potency of the compounds in a cellular assay. The cells were seeded in 96-well microtiter plates in cell culture medium (Iscove, plus 10% (v/v) fetal bovine serum, glutamine, penicillin/streptomycin) to about 80% confluence and the compounds were added at a 10× concentration in 1/10 volume of medium without FCS containing 8% DMSO (final concentration of DMSO was kept at 0.8% v/v). After 18-20 hrs incubation at 37° C. and 5% CO2 in a humidified incubator the culture supernatant was harvested for the determination of Aβ40 concentrations. 96 well ELISA plates (e.g., Nunc MaxiSorb) were coated with monoclonal antibody which specifically recognize the C-terminal end of Aβ40 (Brockhaus et al., NeuroReport 9, 1481-1486; 1998). After blocking of non-specific binding sites with e.g. 1% BSA and washing, the culture supernatants were added in suitable dilutions together with a horseradish peroxidase-coupled Aβ detection antibody (e.g., antibody 4G8, Senetek, Maryland Heights, Mo.) and incubated for 5 to 7 hrs. Subsequently the wells of the microtiter plate were washed extensively with Tris-buffered saline containing 0.05% Tween 20 and the assay was developed with tetramethylbenzidine/H2O2 in citric acid buffer. After stopping the reaction with one volume 1 N H2SO4 the reaction was measured in an ELISA reader at 450 nm wavelength. The concentrations of Aβ in the culture supernatants were calculated from a standard curve obtained with known amounts of pure Aβ peptide.

[1] = target: T2, endogenous cellular BACE2 (Rattus norvegicus, UniProt Q6IE75); experiment: Assay for BACE inhibition by measuring cellular TMEM27 cleavage (INS-TMEM27 cells, ELISA); assay type: cell-based; settings: INS-TMEM27 (Ins1e rat) cells, shed human TMEM27 by ELISA
T2 construct: endogenous in cells; host or cells: INS-TMEM27 (INS1e-derived rat cell line with inducible full-length hTMEM27)
T2 sequence (Q6IE75 63-514): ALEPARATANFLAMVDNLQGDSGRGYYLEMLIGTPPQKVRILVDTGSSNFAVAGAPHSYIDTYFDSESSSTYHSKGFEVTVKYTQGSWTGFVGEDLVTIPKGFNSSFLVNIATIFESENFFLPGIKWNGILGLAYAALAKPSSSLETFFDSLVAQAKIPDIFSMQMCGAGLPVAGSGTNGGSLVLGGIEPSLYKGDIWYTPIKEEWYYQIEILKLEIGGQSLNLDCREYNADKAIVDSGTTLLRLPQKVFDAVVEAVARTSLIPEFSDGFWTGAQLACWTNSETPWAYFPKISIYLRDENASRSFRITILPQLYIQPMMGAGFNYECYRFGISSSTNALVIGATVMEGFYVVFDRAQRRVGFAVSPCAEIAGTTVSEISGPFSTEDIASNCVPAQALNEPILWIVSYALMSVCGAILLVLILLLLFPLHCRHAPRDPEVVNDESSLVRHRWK
Excerpt: Assay for BACE Inhibition by Measuring Cellular TMEM27 Cleavage:
The assay uses the principle of inhibition of human TMEM27 cleavage by endogenous cellular BACE2 in the Ins1e rat cell line and shedding from the cell surface into the culture medium, followed by detection in an ELISA assay Inhibition of BACE2 prevents the cleavage and shedding in a dose-dependent manner
The stable cell line “INS-TMEM27” represents an INS1e-derived cell line with inducible expression (using the TetOn system) of full-length hTMEM27 in a doxycycline-dependent manner. The cells are cultured throughout the experiment in RPMI1640+Glutamax (Invitrogen) Penicillin/Streptomycin, 10% Fetal bovine serum, […], […], 100 micrograms/ml G418 and 100 microgram/ml hygromycin and are grown inadherent culture at 37° C. in a standard CO2 cell culture incubator.
INS-TMEM27 cells are seeded in 96-well plates. After 2 days in culture, BACE2 inhibitor is added in a range of concentrations as required by the assay and after a further two hours, doxycycline is added to a final concentration of 500 ng/ml. The cells are incubated for a further 46 hours and the supernatant harvested for detection of shed TMEM27.
An ELISA assay (using a pair of mouse anti-human-TMEM27 antibodies, raised against the extracellular domain of TMEM27) is used for detection of TMEM27 in the culture medium. An EC50 for BACE2 inhibition is calculated using the ELISA readout for each inhibitor concentration with standard curve-fitting software such as XLFit for the Excel spreadsheet program.

T1 sequence (P56817 46-501): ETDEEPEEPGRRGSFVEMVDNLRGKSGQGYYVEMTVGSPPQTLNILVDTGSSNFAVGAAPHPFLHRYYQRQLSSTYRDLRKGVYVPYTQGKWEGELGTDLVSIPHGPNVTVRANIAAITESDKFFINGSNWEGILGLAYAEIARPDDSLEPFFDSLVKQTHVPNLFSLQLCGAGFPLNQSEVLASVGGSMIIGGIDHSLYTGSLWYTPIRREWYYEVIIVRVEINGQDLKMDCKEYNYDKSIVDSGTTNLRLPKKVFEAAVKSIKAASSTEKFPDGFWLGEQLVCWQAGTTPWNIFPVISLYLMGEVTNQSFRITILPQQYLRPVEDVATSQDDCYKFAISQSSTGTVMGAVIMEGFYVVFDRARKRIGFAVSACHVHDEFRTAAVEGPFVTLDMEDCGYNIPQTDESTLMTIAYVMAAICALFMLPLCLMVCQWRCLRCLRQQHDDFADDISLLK

| SMILES | IC50 (BACE1) [nM] | IC50 [1] [nM] |
| --- | --- | --- |
| C[C@]1(c2cc(-c3cncnc3)ccc2F)N=C(N)COCC1(F)F [Example 1, (R)-6,6-Difluoro-5-(2-fluoro-5-pyrimidin-5-yl-phenyl)-5-methyl-2,5,6,7-tetrahydro-[1,4]oxazepin-3-ylamine formate] | 253 | – |
| CC1(C)OCC(N)=N[C@](C)(c2cc(-c3cncnc3)ccc2F)C1(F)F [Example 2, (R)-6,6-Difluoro-5-(2-fluoro-5-pyrimidin-5-yl-phenyl)-5,7,7-trimethyl-2,5,6,7-tetrahydro-[1,4]oxazepin-3-ylamine] | 56 | – |
| CC1(C)OCC(N)=N[C@](C)(c2cc(-c3cc(F)cc(F)c3)ccc2F)C1(F)F [Example 3, (R)-6,6-Difluoro-5,7,7-trimethyl-5-(4,3′,5′-trifluoro-biphenyl-3-yl)-2,5,6,7-tetrahydro-[1,4]oxazepin-3-ylamine] | 180 | – |
| CC1(C)OCC(N)=N[C@](C)(c2cc(-c3cncc(Cl)c3)ccc2F)C1(F)F [Example 4, (R)-5-[5-(5-Chloro-pyridin-3-yl)-2-fluoro-phenyl]-6,6-difluoro-5,7,7-trimethyl-2,5,6,7-tetrahydro-[1,4]oxazepin-3-ylamine] | 205 | 592 |
| CC1(C)OCC(N)=N[C@](C)(c2cc(C3=CCOCC3)ccc2F)C1(F)F [Example 5, (R)-5-[5-(3,6-Dihydro-2H-pyran-4-yl)-2-fluoro-phenyl]-6,6-difluoro-5,7,7-trimethyl-2,5,6,7-tetrahydro-[1,4]oxazepin-3-ylamine] | 430 | – |
| CC1(C)OCC(N)=N[C@](C)(c2cc(-c3cnn(-c4ccc(F)cc4)c3)ccc2F)C1(F)F [Example 6, (R)-6,6-Difluoro-5-{2-fluoro-5-[1-(4-fluoro-phenyl)-1H-pyrazol-4-yl]-phenyl}-5,7,7-trimethyl-2,5,6,7-tetrahydro-[1,4]oxazepin-3-ylamine] | 520 | – |
| Cn1nccc1-c1ccc(F)c([C@@]2(C)N=C(N)COC(C)(C)C2(F)F)c1 [Example 7, (R)-6,6-Difluoro-5-[2-fluoro-5-(2-methyl-2H-pyrazol-3-yl)-phenyl]-5,7,7-trimethyl-2,5,6,7-tetrahydro-[1,4]oxazepin-3-ylamine] | 540 | – |
| CC1(C)OCC(N)=N[C@](C)(c2cc(C3CCOCC3)ccc2F)C1(F)F [Example 8, (R)-6,6-Difluoro-5-[2-fluoro-5-(tetrahydro-pyran-4-yl)-phenyl]-5,7,7-trimethyl-2,5,6,7-tetrahydro-[1,4]oxazepin-3-ylamine] | 650 | – |
| CC1(C)OCC(N)=N[C@](C)(c2cc(C#Cc3cccc(Cl)c3)ccc2F)C1(F)F [Example 9, (R)-5-[5-(3-Chloro-phenylethynyl)-2-fluoro-phenyl]-6,6-difluoro-5,7,7-trimethyl-2,5,6,7-tetrahydro-[1,4]oxazepin-3-ylamine] | 1340 | – |
| CC1(C)OCC(N)=N[C@](C)(c2cc(-c3cc(Cl)cc(Cl)c3)ccc2F)C1(F)F [Example 10, (R)-5-(3′,5′-Dichloro-4-fluoro-biphenyl-3-yl)-6,6-difluoro-5,7,7-trimethyl-2,5,6,7-tetrahydro-[1,4]oxazepin-3-ylamine] | 1590 | 1330 |

Next, values leading:

| IC50 (BACE1) [nM] | IC50 [1] [nM] | SMILES |
| --- | --- | --- |
| 92 | – | CC1(C)OCC(N)=N[C@](C)(c2cc(-c3ccc(C#N)cc3F)ccc2F)C1(F)F [Example 13, 3′-((R)-3-amino-6,6-difluoro-5,7,7-trimethyl-2,5,6,7-tetrahydro-[1,4]oxazepin-5-yl)-2,4′-difluoro-biphenyl-4-carbonitrile] |
| 186 | 279 | CC1(C)OCC(N)=N[C@](C)(c2cc(-c3cccc(C#N)c3)ccc2F)C1(F)F [Example 14, 3′-((R)-3-Amino-6,6-difluoro-5,7,7-trimethyl-2,5,6,7-tetrahydro-[1,4]oxazepin-5-yl)-4′-fluoro-biphenyl-3-carbonitrile] |
| 800 | – | Cc1nc(C#Cc2ccc(F)c([C@@]3(C)N=C(N)COC(C)(C)C3(F)F)c2)cs1 [Example 17, (R)-6,6-Difluoro-5-[2-fluoro-5-(2-methyl-thiazol-4-ylethynyl)-phenyl]-5,7,7-trimethyl-2,5,6,7-tetrahydro-[1,4]oxazepin-3-ylamine] |
| 250 | – | CC1(C)OCC(N)=N[C@](C)(c2cc(-c3nc4ccc(Cl)cc4o3)ccc2F)C1(F)F [Example 19, (R)-5-[5-(6-Chloro-benzooxazol-2-yl)-2-fluoro-phenyl]-6,6-difluoro-5,7,7-trimethyl-2,5,6,7-tetrahydro-[1,4]oxazepin-3-ylamine hydrochloride] |
| 7 | – | CC1(C)OCC(N)=N[C@](C)(c2cc(-c3cncnc3)c(F)cc2F)C1(F)F [Example 25, (R)-6,6-Difluoro-5-(2,4-difluoro-5-pyrimidin-5-yl-phenyl)-5,7,7-trimethyl-2,5,6,7-tetrahydro-[1,4]oxazepin-3-ylamine] |
| 81 | – | CC1(C)OCC(N)=N[C@](C)(c2cc(-c3cncc(Cl)c3)c(F)cc2F)C1(F)F [Example 26, (R)-5-[5-(5-Chloro-pyridin-3-yl)-2,4-difluoro-phenyl]-6,6-difluoro-5,7,7-trimethyl-2,5,6,7-tetrahydro-[1,4]oxazepin-3-ylamine] |
| 430 | – | CC1(C)OCC(N)=N[C@](C)(c2cc(-c3ccc(C#N)cc3)c(F)cc2F)C1(F)F [Example 27, 5′-((R)-3-amino-6,6-difluoro-5,7,7-trimethyl-2,5,6,7-tetrahydro-[1,4]oxazepin-5-yl)-2′,4′-difluoro-biphenyl-4-carbonitrile] |
| 790 | – | CC1(C)OCC(N)=N[C@](C)(c2cc(-c3cccc(C#N)c3)c(F)cc2F)C1(F)F [Example 28, 5′-((R)-3-Amino-6,6-difluoro-5,7,7-trimethyl-2,5,6,7-tetrahydro-[1,4]oxazepin-5-yl)-2′,4′-difluoro-biphenyl-3-carbonitrile] |
